{
  "source": "patent US20240342237A1",
  "about": "“COMPOSITION AND METHODS OF TREATMENT USING TRANSDERMAL SUPPLEMENTATION” (Xygenyx Inc., priority 2023, published 2024)",
  "origin": "cited, not measured here",
  "key": {"skin [1]": {"system": "skin", "settings": "as penetration enhancer"}, "[2]": {"system": "wide dynamic range neurons in the ventroposterolateral nucleus of the thalamus", "settings": "in vivo"}, "skin [3]": {"system": "skin", "settings": "topical application, concentrations 0.5-5%"}, "skin [4]": {"system": "skin", "settings": "topical formulations, within four weeks of treatment"}, "[5]": {"settings": "compared to α-tocopherol = 1.0"}, "[6]": {"settings": "dietary intake in equal portions"}, "[7]": {"settings": "in vivo"}},
  "note": "Square brackets hold non-standard residues; d marks the D form. Peptide text beside a SMILES is read from it. Cit = NC(=O)NCCC[C@H](N)C(=O)O",
  "data": [
    {"compound": "CC(C)[C@@H]1CC[C@@H](C)C[C@H]1O", "note": "[Menthol]", "values": [
      {"measurement": "factor of increase of transdermal drug uptake", "setting": "skin [1]", "value": "≥ 10"}
    ]},
    {"compound": "CCCCCc1cc(O)c2c(c1)OC(C)(C)C1CCC(C)=CC21", "note": "(stereo not shown) [THC, Δ-9-tetrahydrocannabinol]", "values": [
      {"measurement": "power in mediating pain relative to morphine", "setting": "[2]", "value": "ten times more powerful than morphine"}
    ]},
    {"compound": "C=CCCCCCCCCC(=O)N[C@@H](Cc1ccccc1)C(=O)O", "note": "[UP, Undecylenoyl phenylalanine]", "values": [
      {"measurement": "time to skin lightening effects", "setting": "skin [3]", "value": "≥ 7", "unit": "days"}
    ]},
    {"compound": "CC12CCC(CC1)C(C)(C)O2", "note": "[eucalyptol, 1,8-epoxy-p-menthane]", "values": [
      {"measurement": "factor of increase of transdermal drug uptake", "setting": "skin [1]", "value": "more than 10"}
    ]},
    {"compound": "CC[C@H](C)[C@H](NC(=O)[C@H](CC(=O)O)NC(=O)[C@@H](N)CCCCN)C(=O)N[C@@H](CCCNC(N)=O)C(N)=O", "note": "[tripeptide-10 citrulline, Tripeptide-10 citrulline] (H-KDI[Cit]-NH2)", "values": [
      {"measurement": "improvement of suppleness", "setting": "skin [4]", "value": "≤ 54", "unit": "%"}
    ]},
    {"compound": "Cc1c(C)c2c(c(C)c1O)CC[C@@](C)(CCC[C@H](C)CCC[C@H](C)CCCC(C)C)O2", "note": "[α-tocopherol]", "values": [
      {"measurement": "reduction of risk of coronary disease", "setting": "dietary supplementation, doses up to 400 IU/day", "value": "up to 34%"},
      {"measurement": "reduction of risk of developing neurodegenerative diseases such as Alzheimer's Syndrome or dementia", "setting": "dietary supplementation, doses up to 400 IU/day, controlled trials", "value": "≤ 24", "unit": "%"},
      {"measurement": "reduction in the development of age-related cataracts", "setting": "in combination with 10-20 mg β-carotene and 400-500 mg vitamin C, doses around 400-500 IU", "value": 23, "unit": "%"}
    ]},
    {"compound": "Cc1cc(O)c(C)c2c1O[C@](C)(CCC[C@H](C)CCC[C@H](C)CCCC(C)C)CC2", "note": "[β-tocopherol]", "values": [
      {"measurement": "relative biological activity", "setting": "[5]", "value": 0.5}
    ]},
    {"compound": "Cc1c(O)cc2c(c1C)O[C@](C)(CCC[C@H](C)CCC[C@H](C)CCCC(C)C)CC2", "note": "[γ-tocopherol]", "values": [
      {"measurement": "relative biological activity", "setting": "[5]", "value": 0.1},
      {"measurement": "concentration in vivo relative to α-tocopherol", "setting": "[6]", "value": "roughly 10%"}
    ]},
    {"compound": "Cc1cc(O)cc2c1O[C@](C)(CCC[C@H](C)CCC[C@H](C)CCCC(C)C)CC2", "note": "[δ-tocopherol]", "values": [
      {"measurement": "relative biological activity", "setting": "[5]", "value": 0.03}
    ]},
    {"compound": "HGH: hormone comprising a peptide chain that is synthesized in the pituitary gland", "values": [
      {"measurement": "biological half-life", "setting": "[7]", "value": "10-20 minutes"}
    ]}
  ]
}
